Data reported in paper PMC3368886, “ATPase Cycle and DNA Unwinding Kinetics of RecG Helicase” (PLoS ONE, 2012).

Assays:
Assay type in all cases: biochemical
[1] = biological target: T1, RecG⋅DNA(A40:B40) (Thermotoga maritima, UniProt Q9WY48); experiment: Pi release with excess ATP, global fit to ATPase cycle model; settings: 0.5 µM RecG, 2.5 µM DNA (A40:B40)
T1 construct: made in house
T1 sequence (Q9WY48 1-780): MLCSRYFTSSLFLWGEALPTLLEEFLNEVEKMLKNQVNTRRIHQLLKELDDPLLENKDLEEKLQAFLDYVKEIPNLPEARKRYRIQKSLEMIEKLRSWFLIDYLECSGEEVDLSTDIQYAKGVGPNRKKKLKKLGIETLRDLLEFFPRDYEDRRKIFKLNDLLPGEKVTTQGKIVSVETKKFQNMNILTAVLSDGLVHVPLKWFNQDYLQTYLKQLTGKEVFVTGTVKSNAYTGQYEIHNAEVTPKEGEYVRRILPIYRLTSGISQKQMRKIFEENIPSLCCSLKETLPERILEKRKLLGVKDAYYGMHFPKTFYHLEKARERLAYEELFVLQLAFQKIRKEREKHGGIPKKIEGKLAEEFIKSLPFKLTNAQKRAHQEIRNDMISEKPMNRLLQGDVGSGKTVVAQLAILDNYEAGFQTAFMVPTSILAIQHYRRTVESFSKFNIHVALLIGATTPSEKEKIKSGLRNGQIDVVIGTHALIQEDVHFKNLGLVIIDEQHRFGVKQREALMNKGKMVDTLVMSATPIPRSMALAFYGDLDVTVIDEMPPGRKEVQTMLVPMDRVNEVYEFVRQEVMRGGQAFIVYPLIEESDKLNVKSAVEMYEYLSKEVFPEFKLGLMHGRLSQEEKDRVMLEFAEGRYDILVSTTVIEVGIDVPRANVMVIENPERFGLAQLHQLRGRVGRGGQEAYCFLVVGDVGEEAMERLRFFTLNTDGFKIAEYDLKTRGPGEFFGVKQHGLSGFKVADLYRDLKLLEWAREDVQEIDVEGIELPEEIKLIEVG
Experimental: The rate of Pi release was measured after mixing RecG⋅DNA with excess ATP, using the phosphate biosensor, in the stopped-flow apparatus (Figure 6A). […] Both phases are dependent on ATP concentration. The lag decreased, while the rate of the linear phase increased with greater concentrations of ATP. The lag is due to the steps prior to Pi release, namely ATP binding and cleavage. […] Such a burst phase would result from the relatively fast Pi release of the initial cycle before the Pi release of subsequent cycles was limited by slow ADP release.
Figure 6 ATPase cycle measurements with unmodified nucleotides. (A) Phosphate measurements at different ATP concentrations. 0.5 µM RecG, premixed with 2.5 µM DNA (A40:B40), was then mixed in the stopped-flow apparatus with ATP at the micromolar concentrations shown, in the presence of 10 µM MDCC-PBP. (B) Best fit time courses of the Pi release, based upon a model of the ATPase cycle, as described in the text. Curves were obtained by glogal fitting the curves at different concentrations, using Global kinetic Explorer. Note that in comparison, the experimental time courses show a small transient of Pi at times <100 ms. This is likely to be due to free Pi and this behavior, overlaying a lag, has been observed previously in multi-turnover measurements. (C) ADP Release kinetics. 10 µM RecG⋅DNA (A40∶B40) was pre-bound with 10 µM ADP before mixing with an excess of mantADP (20 µM): these concentrations are final in the mixing chamber. The increase in fluorescence was fitted to single exponential giving the dissociation rate constant of 11.4 (±2.2) s^−1. Rate constants were independent of mantADP concentration in the range of 20–80 µM.
A scheme of the ATPase cycle (Figure 2) was used to simulate the data to assess the individual rate constants. […] The simulated traces (Figure 6B) were obtained from a global fit to the experimental data. This was done by allowing only the rate constants that have maximum influence on the curve shapes to vary. Cleavage and Pi release were assumed to be irreversible. For the fit, Pi release was fixed at 100 s^–1, ADP release at 12.5 s^–1, as the fitting was relatively insensitive to changes in these constants. […] The resulting best fit gave rate constants for ATP binding as 0.65 (±0.02) µM^−1s^−1, dissociation of ATP as 10.0 (±0.6) s^−1, cleavage as 7.1 (±0.1) s^−1. The fit gave a cleavage rate constant similar to the value of k cat from the steady-state analysis (Table 1a). The rate constant for ADP release may be only slightly larger than that of cleavage step.
Data were fitted to theoretical equations using the stopped-flow software or Grafit. Kinetic simulations were performed using Berkeley Madonna (Version 8.3, University of California at Berkeley) and using Global Kinetic Explorer (Kintek). […]

[2] = biological target: T1, RecG⋅DNA(A40:B40); experiment: Kinetic model simulation of single turnover of mantATP
Experimental: In order to test the data obtained with mantATP for consistency, a simple kinetic model for the ATPase mechanism was used to simulate the data in Figure 4A. The model was based on the scheme in Figure 2A, but included a two-step triphosphate binding as in Figure 2B. The model assumed that Pi release is irreversible and mantADP remains bound under these conditions as its K d (<50 nM) is much less than the experimental concentrations. The difference in fluorescence intensity between protein-bound mantATP and mantADP was included in the modeling with bound mantATP representing 20% of the overall increase, as shown experimentally. The best-fit simulation is shown in Figure 4B, which gave mantATP binding at 5.7 s^−1, followed by a rapid step (“conformation change”) of 30 s^−1, hydrolysis at 0.25 s^−1 and Pi release is fast (>10 s^−1). […] There is a discrepancy with the fit to the data at long times, as the experimental traces are slightly biphasic, which could be due to a small proportion of the protein having modified activity due to damage, for example.
Data were fitted to theoretical equations using the stopped-flow software or Grafit. Kinetic simulations were performed using Berkeley Madonna (Version 8.3, University of California at Berkeley) and using Global Kinetic Explorer (Kintek). Global fits were performed using Global Kinetic Explorer.

[3] = biological target: T1, RecG⋅DNA(A40:B40); experiment: Quench-flow measurement of cleavage step (mantADP formation, HPLC)
Experimental: Single turnover measurements of the cleavage step and Pi release were performed with excess RecG⋅DNA over mantATP using conditions of the mantATP fluorescence measurements, described above. Quench-flow measurements allowed the formation of nucleoside diphosphate to be monitored with high time resolution. MantATP was rapidly mixed with excess RecG⋅DNA, and the reaction mix was quenched in acid at particular time points. The mix was then analyzed by HPLC to quantify mantATP and mantADP, giving the time course of mantADP formation (Figure 4A). This time course had similar kinetics to the slow phase of the mant fluorescence trace (0.2 s^−1), supporting the idea that this phase is mantADP formation.
These were carried out using a HiTech RQF-63 apparatus using different length loops and flow rates to age reactions before quenching using 10% perchloric acid. Samples were analyzed for the ratio of mantATP to mantADP by HPLC, as described.

Compound | cleavage (global fit) [1] | dissociation of ATP (global fit) [1] | rate constant for ATP binding (global fit) [1] | Pi release (best-fit simulation) [2] | hydrolysis (best-fit simulation) [2] | mantATP binding (best-fit simulation) [2] | rapid step (conformation change) (best-fit simulation) [2] | rate of mantADP formation (quench-flow time course) ([3]; 0.5 µM mantATP, 2.5 µM RecG, 5 µM DNA) | hydrolytic cleavage slower than ATP ([3]; mantATP vs ATP)
Nc1ncnc2c1ncn2[C@@H]1O[C@H](COP(=O)(O)OP(=O)(O)OP(=O)(O)O)[C@@H](O)[C@H]1O [ATP] | 7.1 (±0.1) s^−1 | 10.0 (±0.6) s^−1 | 0.65 (±0.02) µM^−1s^−1 |  |  |  |  |  | 
CNc1ccccc1C(=O)O[C@H]1[C@@H](O)[C@H](n2cnc3c(N)ncnc32)O[C@@H]1COP(=O)(O)OP(=O)(O)OP(=O)(O)O [mantATP, 2′(3′)-O-(N-methylanthraniloyl)ATP] |  |  |  | > 10 s⁻¹ | 0.25 s⁻¹ | 5.7 s⁻¹ | 30 s⁻¹ | 0.2 s⁻¹ | ~10 fold
